Source: patent US8486931B2, “Substituted oxindole compounds” (Abbott GmbH & Co. KG, priority 2007, dated 2013)
Counter-ions that a name gives are not always drawn.

The molecules below were run against T1, human vasopressin V1b receptor (Homo sapiens, UniProt P47901) (assay: Vasopressin V1b receptor binding assay). Conditions: membranes from CHO-K1 cells with stably expressed human V1b receptors, 1.5 nM 3H-AVP displacement; with more than one stereogenic center: the diastereomer with stronger affinity.
T1 construct: expressed in transfected cells; host or cells: CHO-K1 (cell line hV1b-3H2_CHO), membrane preparation
T1 sequence (P47901 1-424): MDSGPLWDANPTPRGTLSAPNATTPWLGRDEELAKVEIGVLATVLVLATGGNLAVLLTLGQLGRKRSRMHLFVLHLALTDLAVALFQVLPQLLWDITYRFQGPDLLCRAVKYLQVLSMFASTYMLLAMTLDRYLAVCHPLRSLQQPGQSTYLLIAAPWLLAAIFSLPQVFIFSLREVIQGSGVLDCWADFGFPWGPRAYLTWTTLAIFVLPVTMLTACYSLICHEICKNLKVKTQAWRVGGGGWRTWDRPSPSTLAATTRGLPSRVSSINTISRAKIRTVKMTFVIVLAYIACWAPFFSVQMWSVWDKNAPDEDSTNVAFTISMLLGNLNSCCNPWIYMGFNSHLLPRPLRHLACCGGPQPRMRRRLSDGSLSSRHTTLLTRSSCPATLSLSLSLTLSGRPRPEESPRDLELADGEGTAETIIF
Method in brief: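 Membranes bearing human V1b receptor incubated 60 min at room temperature in 50 mM Tris, 10 mM MgCl2, 0.1% BSA, pH 7.4, 2% DMSO, triplicate.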

| Compound | Ki [nM] |
| --- | --- |
| CCOc1ccccc1C1(N2CCN(C3CCN(C)CC3)CC2)C(=O)N(S(=O)(=O)c2ccc(OC)cn2)c2ccc(C#N)cc21 (racemic) [Example 83, (±)-5-Cyano-3-(2-ethoxyphenyl)-1-(5-methoxypyridine-2-sulfonyl)-3-[4-(1-methyl-piperidin-4-yl)piperazin-1-yl]-2,3-dihydro-1H-indol-2-one] | 10 to 50 |
| CCOc1ccccc1C1(N2CCN(c3ccncc3)CC2)C(=O)N(S(=O)(=O)c2cccc3c(CC)ccnc23)c2ccc(C#N)cc21 (racemic) [Example 84, (±)-5-Cyano-3-(2-ethoxyphenyl)-1-(4-ethylquinoline-8-sulfonyl)-3-(4-pyridin-4-yl-piperazin-1-yl)-2,3-dihydro-1H-indol-2-one] | < 10 |
| CCOc1nc(Cl)ccc1C1(N2CCN(c3ccnc(C)c3)CC2)C(=O)N(S(=O)(=O)c2ccc(OC)c3cccnc23)c2ccc(C#N)cc21 (racemic) [Example 85, (±)-5-Cyano-3-(6-chloro-2-ethoxypyridin-3-yl)-1-(5-methoxyquinoline-8-sulfonyl)-3-[4-(2-methylpyridin-4-yl)piperazin-1-yl]-2,3-dihydro-1H-indol-2-one] | < 10 |
| CCOc1ccc(OC)cc1C1(N2CCC(N3CCNCC3)CC2)C(=O)N(S(=O)(=O)c2ccc(OC)cn2)c2ccc(C#N)cc21 (racemic) [Example 86, (±)-5-Cyano-3-(2-ethoxy-5-methoxyphenyl)-1-(5-methoxypyridine-2-sulfonyl)-3-(4-piperazin-1-ylpiperidin-1-yl)-2,3-dihydro-1H-indol-2-one] | < 10 |
| CCOc1ccc(OC)cc1C1(N2CCC(N3CCNCC3)CC2)C(=O)N(S(=O)(=O)c2ccc(OC)c3cccnc23)c2ccc(C#N)cc21 (racemic) [Example 87, (±)-5-Cyano-3-(2-ethoxy-5-methoxyphenyl)-1-(5-methoxyquinoline-8-sulfonyl)-3-(4-piperazin-1-ylpiperidin-1-yl)-2,3-dihydro-1H-indol-2-one hydrochloride] | < 10 |
| CCOc1ccccc1C1(N2CCN(c3ccncc3)CC2)C(=O)N(S(=O)(=O)c2ccc(C)c3cccnc23)c2ccc(C#N)cc21 (racemic) [Example 88, (±)-5-Cyano-3-(2-ethoxyphenyl)-1-(5-methylquinoline-8-sulfonyl)-3-(4-pyridin-4-yl-piperazin-1-yl)-2,3-dihydro-1H-indol-2-one] | 10 to 50 |
| CCOc1ccc(OC)cc1C1(N2CCC(N3CCN(CC)CC3)CC2)C(=O)N(S(=O)(=O)c2ccc(OC)cn2)c2ccc(C#N)cc21 (racemic) [Example 145, (±)-5-Cyano-3-(2-ethoxy-5-methoxy-phenyl)-3-[4-(4-ethyl-piperazin-1-yl)-piperidin-1-yl]-1-(5-methoxy-pyridine-2-sulfonyl)-2,3-dihydro-1H-indol-2-one] | 10 to 50 |
| CCOc1nc(Cl)ccc1C1(N2CC3CN(c4ccncc4)CC3C2)C(=O)N(S(=O)(=O)c2ccc(OC)cn2)c2ccc(C#N)cc21 (racemic) [Example 148, (±)-5-Cyano-3-(6-chloro-2-ethoxy-pyridin-3-yl)-1-(5-methoxy-pyridine-2-sulfonyl)-3-(5-pyridin-4-yl-hexahydro-pyrrolo[3,4-c]pyrrol-2-yl)-2,3-dihydro-1H-indol-2-one] | 10 to 50 |
| CCOc1nc(Cl)ccc1C1(N2CC3CN(c4ccnc(C)c4)CC3C2)C(=O)N(S(=O)(=O)c2ccc(OC)cn2)c2ccc(C#N)cc21 (racemic) [Example 149, (±)-5-Cyano-3-(6-chloro-2-ethoxy-pyridin-3-yl)-1-(5-methoxy-pyridine-2-sulfonyl)-3-[5-(2-methyl-pyridin-4-yl)-hexahydro-pyrrolo[3,4-c]pyrrol-2-yl]-2,3-dihydro-1H-indol-2-one] | < 10 |
| CCOc1nc(Cl)ccc1C1(N2CC3CC2CN3c2ccncc2)C(=O)N(S(=O)(=O)c2ccc(OC)cn2)c2ccc(C#N)cc21 (racemic) [Example 155, (±)-5-Cyano-3-(6-chloro-2-ethoxy-pyridin-3-yl)-1-(5-methoxy-pyridine-2-sulfonyl)-3-((1S,4S)-5-pyridin-4-yl-2,5-diaza-bicyclo[2.2.1]hept-2-yl)-2,3-dihydro-1-2-one] | 10 to 50 |
| CCOc1ccc(C)cc1C1(N2CCN(c3ccncc3)CC2)C(=O)N(S(=O)(=O)c2ccc(OC)c3cccnc23)c2ccc(C#N)cc21 (racemic) [Example 159, (±)-5-Cyano-3-(2-ethoxy-5-methyl-phenyl)-1-(5-methoxy-quinoline-8-sulfonyl)-3-(4-pyridin-4-yl-piperazin-1-yl)-2,3-dihydro-1H-indol-2-one] | < 10 |
| CCOc1ccc(CC)cc1C1(N2CCN(c3ccnc(C)c3)CC2)C(=O)N(S(=O)(=O)c2ccc(OC)c3cccnc23)c2ccc(C#N)cc21 (racemic) [Example 160, (±)-5-Cyano-3-(2-ethoxy-5-ethyl-phenyl)-1-(5-methoxy-quinoline-8-sulfonyl)-3-[4-(2-methyl-pyridin-4-yl)-piperazin-1-yl]-2,3-dihydro-1H-indol-2-one] | < 10 |
| CCOc1ccc(OC)cc1C1(N2CCN(C3CCN(C)CC3)CC2)C(=O)N(S(=O)(=O)c2ccc(OC)c3cccnc23)c2ccc(C#N)cc21 (racemic) [Example 161, (±)-5-Cyano-3-(2-ethoxy-5-methoxy-phenyl)-1-(5-methoxy-quinoline-8-sulfonyl)-3-[4-(1-methyl-piperidin-4-yl)-piperazin-1-yl]-2,3-dihydro-1H-indol-2-one] | < 10 |

Further lines, results first:

| Ki [nM] | Compound |
| --- | --- |
| < 10 | CCOc1ccc(OC)cc1C1(N2CCN(c3ccncc3)CC2)C(=O)N(S(=O)(=O)c2ccc(OC)c3cccnc23)c2ccc(C#N)cc21 (racemic) [Example 80, (±)-5-Cyano-3-(2-ethoxy-5-methoxyphenyl)-1-(5-methoxyquinoline-8-sulfonyl)-3-(4-pyridin-4-ylpiperazin-1-yl)-2,3-dihydro-1H-indol-2-one] |
| < 10 | CCOc1ccc(OC)cc1C1(N2CCN(c3ccncc3)CC2)C(=O)N(S(=O)(=O)c2ccc(F)c3cccnc23)c2ccc(C#N)cc21 (racemic) [Example 81, (±)-5-Cyano-3-(2-ethoxy-5-methoxyphenyl)-1-(5-fluoroquinoline-8-sulfonyl)-3-(4-pyridin-4-ylpiperazin-1-yl)-2,3-dihydro-1H-indol-2-one] |
| < 10 | CCOc1ccc(OC)cc1C1(N2CCN(c3ccncc3)CC2)C(=O)N(S(=O)(=O)c2ccc(OC)cn2)c2ccc(C#N)cc21 (racemic) [Example 82, (±)-5-Cyano-3-(2-ethoxy-5-methoxyphenyl)-1-(5-methoxypyridine-2-sulfonyl)-3-(4-pyridin-4-ylpiperazin-1-yl)-2,3-dihydro-1H-indol-2-one] |
| < 10 | CCOc1cc(F)ccc1C1(N2CCN(c3ccnc(C)c3)CC2)C(=O)N(S(=O)(=O)c2ccc(OC)cn2)c2ccc(C#N)cc21 (racemic) [Example 144, (±)-5-Cyano-3-(2-ethoxy-4-fluoro-phenyl)-1-(5-methoxy-pyridine-2-sulfonyl)-3-[4-(2-methyl-pyridin-4-yl)-piperazin-1-yl]-2,3-dihydro-1H-indol-2-one] |
| < 10 | CCOc1ccc(OC)cc1C1(N2CCN(c3ccnc(CC)c3)CC2)C(=O)N(S(=O)(=O)c2ccc(OC)cn2)c2ccc(C#N)cc21 (racemic) [Example 146, (±)-5-Cyano-3-(2-ethoxy-5-methoxy-phenyl)-3-[4-(2-ethyl-pyridin-4-yl)-piperazin-1-yl]-1-(5-methoxy-pyridine-2-sulfonyl)-2,3-dihydro-1H-indol-2-one] |
| 10 to 50 | CCOc1cc(F)ccc1C1(N2CCCN(c3ccncc3)CC2)C(=O)N(S(=O)(=O)c2ccc(OC)cn2)c2ccc(C#N)cc21 (racemic) [Example 147, (±)-5-Cyano-3-(2-ethoxy-4-fluoro-phenyl)-1-(5-methoxy-pyridine-2-sulfonyl)-3-(4-pyridin-4-yl-[1,4]diazepan-1-yl)-2,3-dihydro-1H-indol-2-one] |
| 10 to 50 | CCOc1ccccc1C1(N2CCN(c3ccnc(C(C)C)c3)CC2)C(=O)N(S(=O)(=O)c2ccc(OC)cn2)c2ccc(C#N)cc21 (racemic) [Example 150, (±)-5-Cyano-3-(2-ethoxy-phenyl)-3-[4-(2-isopropyl-pyridin-4-yl)-piperazin-1-yl]-1-(5-methoxy-pyridine-2-sulfonyl)-2,3-dihydro-1H-indol-2-one] |
| < 10 | CCOc1cc(F)ccc1C1(N2CCN(c3ccnc(C(C)C)c3)CC2)C(=O)N(S(=O)(=O)c2ccc(OC)cn2)c2ccc(C#N)cc21 (racemic) [Example 153, (±)-5-Cyano-3-(2-ethoxy-4-fluoro-phenyl)-3-[4-(2-isopropyl-pyridin-4-yl)-piperazin-1-yl]-1-(5-methoxy-pyridine-2-sulfonyl)-2,3-dihydro-1H-indol-2-one] |
| < 10 | CCOc1ccc(OC)cc1C1(N2CCCN(c3ccnc(C(C)C)c3)CC2)C(=O)N(S(=O)(=O)c2ccc(OC)cn2)c2ccc(C#N)cc21 (racemic) [Example 154, (±)-5-Cyano-3-(2-ethoxy-5-methoxy-phenyl)-3-[4-(2-isopropyl-pyridin-4-yl)-[1,4]diazepan-1-yl]-1-(5-methoxy-pyridine-2-sulfonyl)-2,3-dihydro-1H-indol-2-one] |
| 10 to 50 | CCOc1cc(OC)ccc1C1(N2CCN(c3ccncc3)CC2)C(=O)N(S(=O)(=O)c2cccc3cccnc23)c2ccc(C#N)cc21 (racemic) [Example 157, (±)-5-Cyano-3-(2-ethoxy-4-methoxy-phenyl)-3-(4-pyridin-4-yl-piperazin-1-yl)-1-(quinoline-8-sulfonyl)-2,3-dihydro-1H-indol-2-one] |
